In the NIST ThermoML archive (doi:10.1016/j.jct.2004.09.002):
Numbers after ± are expanded uncertainties.

Tests used:
[1] = 293.15 K; 101.33 kPa; Liquid; Vibrating tube method
[2] = refractive index (Na D-line) (dimensionless); details: 293.15 K; 101.33 kPa; Liquid; Standard Abbe refractometry
[3] = Boiling temperature at pressure P; details: 101.33 kPa; Liquid; Fischer boiling point apparatus

| mass density [1] | refractive index [2] | Boiling temperature at pressure P [3] | Structure (SMILES) |
| --- | --- | --- | --- |
| 957.6 ± 0.5 kg/m3 | 1.3982 ± 0.0012 | – | CCCC(=O)O [butanoic acid] |
| 970.3 ± 1 kg/m3 | 1.4434 ± 0.0013 | 177.30 ± 0.2 °C | CC(=O)OC1CCCCC1 [cyclohexyl ethanoate] |
| – | 1.3324 ± 0.0012 | 100.1 ± 0.2 °C | O [water] |
